Laboratory results from paper PMC2397535 (Breast Cancer Research : BCR, 2008).
Where two headings read alike, the source gives them in different places. Marks after values point to notes of the source that are not given here.

Assays:
[1] = system: ERBB2, AKT, phospho-AKT in BT-474 cells; assay: client protein levels in BT-474 cells (Western blot); format: cell-based, human
Procedure: To assess total levels of AKT, phosphorylated AKT, β-tubulin, and ERBB2 in the cell extracts, 20 to 30 μg of total protein was resolved by the appropriate-percentage SDS-PAGE. The following antibodies were used for immunoblotting: anti-AKT (cat. no. 9272, rabbit polyclonal; Cell Signaling Technology, Inc.), anti-phospho-AKT (Ser473) (cat. no. 9271, rabbit polyclonal; Cell Signaling Technology, Inc.), anti-β-tubulin (cat. no. T 4026, mouse monoclonal, clone Tub2.1; Sigma-Aldrich, St. Louis, MO, USA), and anti-ERBB2 (cat. no. 28-0004, rabbit polyclonal; Zymed Laboratories Inc., now part of Invitrogen Corporation, Carlsbad, CA, USA). Bound antibodies on PVDF immunoblots were detected by Amersham ECL (Amersham, now part of GE Healthcare, Little Chalfont, Buckinghamshire, UK) or infrared fluorescence detection (LI-COR Biosciences, Lincoln, NE, USA).

[2] = system: HSP90α; conditions: read-out: IC50 (median inhibition concentration); cited from earlier work
[3] = system: MDA-MB-231; assay: antiproliferative effect (GI50), breast cancer cell line; format: cell-based; conditions: Homo sapiens
[4] = system: MAXF 583; assay: clonogenic (soft agar colony formation) assay, primary breast tumor; format: cell-based, human
[5] = tolerability (body weight, survival) in BT-474 tumor-bearing nude mice; format: in vivo
Procedure: (§1) Invasive procedures were performed under Forene anesthesia. […] The animals were fed food and water ad libitum.
(§2) Tumor growth and body weights were monitored at regular intervals. The xenograft tumor sizes were measured manually with calipers, and the tumor volume was estimated using the formula (w × l × h × π/6), where width (w), height (h), and length (l) are the three largest diameters.
(§3) When applicable, results are presented as mean ± standard error of the mean. Tumor and body weight data were analyzed by analysis of variance (ANOVA) with the post hoc Dunnett test for comparison of treatment versus control groups. The post hoc Tukey test was used for intragroup comparison. Statistical analysis was performed using GraphPad Prism 5 (GraphPad Software, Inc., San Diego, CA, USA). As a measure of efficacy, the %T/C value is calculated at the end of the experiment according to (Δtumor volumetreated/Δtumor volumecontrol) × 100, where Δtumor volumes represent the mean tumor volume on the evaluation day minus the mean tumor volume at the start of the experiment.

[6] = system: BT-474 breast cancer xenograft; assay: antitumor effect in BT-474 breast cancer xenograft model; format: in vivo, mice; conditions: for T/C / Tumor volume change: day 20
Procedure: as §1, §2, §3

[7] = system: MAXF 1162; assay: clonogenic (soft agar colony formation) assay, primary breast tumor; format: cell-based, human
[8] = system: BT20; assay: antiproliferative effect (GI50), breast cancer cell line; format: cell-based; conditions: Homo sapiens, BT-20
[9] = pharmacokinetics and biodistribution in BT-474 tumor-bearing mice (HPLC/MS-MS); format: in vivo; conditions: for Kp: intravenous; for Kp / half-life: 30 mg/kg
Procedure: At various time points, mice (n = 4) were sacrificed and blood and tissues (tumor, liver, lung, heart, and muscles) were dissected. […] Frozen tissues were minced, then homogenized in an equal volume of ice-cold phosphate-buffered saline (Sigma P4417; Sigma-Aldrich) using a Polytron homogenizer (TP18-10; IKA, Staufen, Germany) and keeping the material cold during the homogenization. After the addition of 50 μL of internal standard (1 μg/mL) to analytical aliquots (25 to 250 μL) of plasma or tissue homogenate, the proteins were precipitated by the addition of an equal volume of acetonitrile and processed further for chromatographic separation. […] An aliquot (5 μL) of this solution was separated on a […] Ultra Cyano reverse-phase HPLC column (column size 50 × 1 mm, particle size 3 μm, preceded by a guard column: PhenomenexTM AJO-4304 Phenylpropyl, size 4 × 2 mm (Phenomenex, Torrance, CA, USA)) with a mobile phase consisting of a mixture of 0.2% formic acid in water (solvent A) and 0.2% formic acid in acetonitrile (solvent B). The column eluent was introduced directly into the ion source of the triple-quadrupole mass spectrometer Quattro UltimaTM (Micromass Limited, now part of Waters Corporation, Milford, MA, USA) controlled by MasslynxTM 4.0 software. Positive electrospray ionization multiple-reaction monitoring was used for the MS/MS detection of the analyte. Precursors to product ion transitions of m/z 466.[…]/z 308.20 for NVP-AUY922-NX and m/z 480.[…]/z 308.15 for IS VER814 were used. […] Regression analysis and further calculations were performed using QuanLynxTM 4.0 (Waters Corporation, Milford, MA, USA) and ExcelTM 2002 (Microsoft Corporation, Redmond, WA, USA). Concentrations of unknown samples were calculated from the peak area ratio of the product ion of the analytes to the product ion of its internal standard (ordinate) against the nominal concentration (abscissa). Assay linearity was indicated by an overall regression coefficient of 0.9975.

[10] = system: BT-474; assay: antiproliferative effect (GI50), breast cancer cell line; format: cell-based; conditions: Homo sapiens
[11] = 48 hours after compound administration

CCNC(=O)c1noc(-c2cc(C(C)C)c(O)cc2O)c1-c1ccc(CN2CCOCC2)cc1 [NVP-AUY922]
concentration required for significant reduction of protein AKT levels [1]: […] | phospho-AKT levels ([1]; 50 nM): decrease in the levels of phospho-AKT | total ERBB2 levels ([1]; 50 nM): decrease in total ERBB2 levels | IC50 [2]: […] | GI50 [3]: 7 ± 1.7 nM | IC70 (colony formation) [4]: 569 nM | IC50 ([4]; Homo sapiens): 333 nM | body weights compared with vehicle ([5]; single i.v. administration, 17 or 25 mg/kg): did not affect body weights | body weight ([5]; three times per week i.v., all dose levels (10, 30, 50 mg/kg)): significant body weight loss | T/C ([6]; 8.3 mg/kg once per week): 95 percentage | Tumor volume change ([6]; 8.3 mg/kg once per week): 252 ± 73 cubic millimeters | T/C ([6]; 17 mg/kg once per week): 72 percentage | Tumor volume change ([6]; 17 mg/kg once per week): 191 ± 61 cubic millimeters | T/C ([6]; 25 mg/kg once per week): 12 percentage | Tumor volume change ([6]; 25 mg/kg once per week): 32 ± 15^a cubic millimeters | T/C ([6]; 41 mg/kg once per week): 3 percentage | Tumor volume change ([6]; 41 mg/kg once per week): 9 ± 13^a cubic millimeters | T/C ([6]; 58 mg/kg once per week): 8 percentage | Tumor volume change ([6]; 58 mg/kg once per week): 22 ± 26^a cubic millimeters | tumor response ([6]; once per week i.v., 8.3 to 17 mg/kg): did not result in a significant effect on tumor growth | tumor response ([6]; once per week i.v., 25 to 58 mg/kg): highly efficacious | tumor growth ([6]; single i.v. dose 17 mg/kg): indication of retarded tumor growth | time without significant tumor growth after administration ([6]; single i.v. dose 25 mg/kg): […] | tumor size at end corresponds to control tumor size this much earlier ([6]; single i.v. dose 25 mg/kg): approximately 10 days | tumor size versus control group at the end of the experiment ([6]; single i.v. dose 25 mg/kg, 21 days, P < 0.05): statistically significantly smaller | tumor response ([6]; three times per week i.v., 10 mg/kg): did not result in a significant effect on tumor growth | tumor response ([6]; three times per week i.v., 30 and 50 mg/kg): tumor regression | IC70 (colony formation) [7]: 505 nM | IC50 ([7]; Homo sapiens): 304 nM | GI50 [8]: 4 ± 1.4 nM | plasma concentrations [9, 11]: […] | tumor concentration [9, 11]: 2.22 nmol/g | Kp ([9]; female, athymic, mouse, heart, read-out: tissue exposure over 48 hours relative to plasma): 5 | half-life ([9]; female, athymic, mouse, heart, iv, heart, 30 mg/kg single i.v., read-out: T 1/2 elimination λ_z (converted)): 5.6 h | AUC(0-t) ([9]; female, athymic, mouse, iv, plasma, 30 mg/kg single i.v., read-out: AUC(0-8)): 7.3 µM·h | Cmax ([9]; female, athymic, mouse, iv, plasma, 30 mg/kg single i.v., read-out: Cmax): 14.1 ± 4.14 µM | Kp ([9]; female, athymic, mouse, liver, read-out: tissue exposure over 48 hours relative to plasma): 7 | half-life ([9]; female, athymic, mouse, liver, iv, liver, 30 mg/kg single i.v., read-out: T 1/2 elimination λ_z (converted)): 7.7 h | half-life ([9]; female, athymic, mouse, liver, lung, heart, muscle, iv, liver, lung, heart, muscle, read-out: terminal elimination half-life from non-tumor tissues): 5.5 to 8 h | Kp ([9]; female, athymic, mouse, lung, read-out: tissue exposure over 48 hours relative to plasma): 10 | half-life ([9]; female, athymic, mouse, lung, iv, lung, 30 mg/kg single i.v., read-out: T 1/2 elimination λ_z (converted)): 5.5 h | Kp ([9]; female, athymic, mouse, muscle, read-out: tissue exposure over 48 hours relative to plasma): 5 | half-life ([9]; female, athymic, mouse, muscle, iv, muscle, 30 mg/kg single i.v., read-out: T 1/2 elimination λ_z (converted)): 8 h | half-life ([9]; female, athymic, mouse, plasma, iv, based on the last three time points, read-out: apparent terminal elimination half-life in plasma (converted)): 10 h | half-life ([9]; female, athymic, mouse, plasma, iv, plasma, 30 mg/kg single i.v., read-out: T 1/2 elimination λ_z (converted)): 10.3 h | Kp ([9]; female, athymic, mouse, tumor, read-out: tumor exposure relative to plasma): ~47 | half-life ([9]; female, athymic, mouse, tumor, iv, tumor, 30 mg/kg single i.v., read-out: T 1/2 elimination λ_z (converted)): 30 h | half-life ([9]; female, athymic, mouse, tumor, iv, tumor, read-out: terminal half-life in tumor): 25 to 30 h | AUC(0-8) ([9]; heart, 30 mg/kg single i.v.): 32 nmol·h/g | Cmax ([9]; heart, 30 mg/kg single i.v.): 36.86 ± 7.42 nmol/g | dose-normalized plasma exposure ([9]; i.v. 20 mg/kg): 0.28 µmol·h/L | dose-normalized plasma exposure ([9]; i.v. 30 mg/kg): 0.24 µmol·h/L | AUC(0-8) ([9]; liver, 30 mg/kg single i.v.): 53 nmol·h/g | Cmax ([9]; liver, 30 mg/kg single i.v.): 30.94 ± 5.58 nmol/g | AUC(0-8) ([9]; lung, 30 mg/kg single i.v.): 71 nmol·h/g | Cmax ([9]; lung, 30 mg/kg single i.v.): 48.48 ± 10.11 nmol/g | AUC(0-8) ([9]; muscle, 30 mg/kg single i.v.): 35 nmol·h/g | Cmax ([9]; muscle, 30 mg/kg single i.v.): 27.45 ± 6.64 nmol/g | Cmax (highest concentration) ([9]; tumor): 16.3 nmol/g | tumor drug level at 48 hours as share of Cmax ([9]; tumor): approximately 13% | AUC(0-8) ([9]; tumor, 30 mg/kg single i.v.): 345 nmol·h/g | Cmax ([9]; tumor, 30 mg/kg single i.v.): 16.36 ± 3.84 nmol/g | GI50 [10]: 3.1 ± 1.4 nM
